Measurements taken from patent US9701689B2, “Substituted pyridines and pyridazines as CCR10 receptor inhibitors” (KYOWA HAKKO KIRIN CO., LTD., priority 2012, dated 2017).

biological target: T1, human CCR10 (Homo sapiens, UniProt P46092); assay: CCR10 antagonistic effect: calcium assay of human CCR10 (CTACK-induced increase of intracellular calcium in hCCR10G16 cells); type: cell-based; conditions: at a concentration of not more than 1000 nmol/L; human CCR10-expressing hCCR10G16 cells, 300 nmol/L CTACK added; read-out: inhibition of increase in the calcium ion concentration
T1 construct: expressed in transfected cells; host or cells: KJMGER8 cells (Namalwa cell-derived line), beta-estradiol-induced; hCCR10G16 cells
T1 sequence (P46092 1-362): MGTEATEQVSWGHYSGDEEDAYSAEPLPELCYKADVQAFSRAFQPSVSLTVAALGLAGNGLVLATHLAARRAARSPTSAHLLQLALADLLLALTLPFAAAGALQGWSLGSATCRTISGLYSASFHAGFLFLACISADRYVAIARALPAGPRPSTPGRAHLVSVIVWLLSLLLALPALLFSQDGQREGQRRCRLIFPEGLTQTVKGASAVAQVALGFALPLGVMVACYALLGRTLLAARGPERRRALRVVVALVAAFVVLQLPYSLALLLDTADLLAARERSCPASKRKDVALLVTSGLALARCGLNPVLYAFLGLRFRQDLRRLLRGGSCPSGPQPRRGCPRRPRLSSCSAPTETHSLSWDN
In short: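 KJMGER8-derived hCCR10G16 cells (CCR10 plus Gα16, induced 24 h with 10 nmol/L β-estradiol), Fluo-3 loaded, preincubated with compound 30 min at 37 °C. Stimulated with CTACK (300 nmol/L solution before addition); calcium read ~5 min by FDSS, max−min fluorescence; % inhibition vs control.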

Structure (SMILES)	inhibition at up to 1 µM [%]
Cc1cc([N+](=O)[O-])ccc1Nc1c(C(=O)N2CCC(c3ccc(F)cc3)CC2)cnc(S(N)(=O)=O)c1Cl [Compound 318, 3-chloro-5-[4-(4-fluorophenyl)piperidine-1-carbonyl]-4-(2-methyl-4-nitrophenylamino)pyridine-2-sulfonamide]	≥ 50
Cc1c(S(=O)(=O)Nc2ccon2)ncc(C(=O)N2CCC(c3ccc(F)cc3)CC2)c1Nc1ccc(Br)cc1 [Compound 260, 4-(4-bromophenylamino)-5-[4-(4-fluorophenyl)piperidine-1-carbonyl]-N-(isoxazol-3-yl)-3-methylpyridine-2-sulfonamide]	≥ 50
CCc1c(S(=O)(=O)Nc2ccon2)ncc(C(=O)N2CCC(c3ccc(F)cc3)CC2)c1Nc1cccc(F)c1C [Compound 294, 3-ethyl-4-(3-fluoro-2-methylphenylamino)-5-[4-(4-fluorophenyl)piperidine-1-carbonyl]-N-(isoxazol-3-yl)pyridine-2-sulfonamide]	≥ 50
Cc1c(S(=O)(=O)Nc2ccon2)ncc(C(=O)N2CCC(c3ccc(F)cc3)CC2)c1NCc1ccccn1 [Compound 223, 5-[4-(4-fluorophenyl)piperidine-1-carbonyl]-N-(isoxazol-3-yl)-3-methyl-4-(pyridin-2-ylmethylamino)pyridine-2-sulfonamide]	≥ 50
COc1ccc(Nc2cc(S(N)(=O)=O)ncc2C(=O)N2CCC(c3ccc(F)cc3)CC2)cc1C [Compound 88, 5-[4-(4-fluorophenyl)piperidine-1-carbonyl]-4-(4-methoxy-3-methylphenylamino)pyridine-2-sulfonamide]	≥ 50
Cc1c(S(=O)(=O)Nc2ccon2)ncc(C(=O)N2CCC(c3ccc(F)cc3)CC2)c1Nc1cc(F)c(F)cc1F [Compound 246, 5-[4-(4-fluorophenyl)piperidine-1-carbonyl]-N-(isoxazol-3-yl)-3-methyl-4-(2,4,5-trifluorophenylamino)pyridine-2-sulfonamide]	≥ 50

The next lines start with the values.

inhibition at up to 1 µM [%]	Structure (SMILES)
≥ 50	NS(=O)(=O)c1ncc(C(=O)N2CCC(c3ccc(F)cc3)CC2)c(Nc2ccc(Cl)cc2)c1Cl [Compound 302, 3-chloro-4-(4-chlorophenylamino)-5-[4-(4-fluorophenyl)piperidine-1-carbonyl]pyridine-2-sulfonamide]
≥ 50	Cc1cc(NS(=O)(=O)c2ncc(C(=O)N3CCC(c4ccc(F)cc4)CC3)c(Nc3ccc(F)cc3C)c2C)sn1 [Compound 266, 4-(4-fluoro-2-methylphenylamino)-5-[4-(4-fluorophenyl)piperidine-1-carbonyl]-3-methyl-N-(3-methylisothiazol-5-yl)pyridine-2-sulfonamide]
≥ 50	Cc1c(S(N)(=O)=O)ncc(C(=O)N2CCC(c3ccc(F)cc3)CC2)c1NCc1cccnc1 [Compound 221, 5-[4-(4-fluorophenyl)piperidine-1-carbonyl]-3-methyl-4-(pyridin-3-ylmethylamino)pyridine-2-sulfonamide]
≥ 50	Cc1cc(C#N)c(Nc2c(C(=O)N3CCC(c4ccc(F)cc4)CC3)cnc(S(N)(=O)=O)c2Cl)cc1C [Compound 320, 3-chloro-4-(2-cyano-4,5-dimethylphenylamino)-5-[4-(4-fluorophenyl)piperidine-1-carbonyl]pyridine-2-sulfonamide]
